Measured values from patent US20230172204A1 (BASF SE, priority 2020, published 2023).

Key:
[1] = system: Phakopsora pachyrhizi (F129L); assay: Protective control of soybean rust on soybeans (PHAKPA P2); format: in vivo; conditions: for PHAKPA (F129L) Disease level (%) P2 at 16 ppm / PHAKPA (F129L) Disease level (%) P2 at 4 ppm: P2 protective, % diseased leaf area; for % PHAKPA (F129L) Disease level P2 at 4 ppm: protective P2, 4 ppm; for % PHAKPA (F129L) Disease level P2 at 4 ppm / % PHAKPA (F129L) Disease level P2 at 16 ppm: soybean rust F129L; for % PHAKPA (F129L) Disease level P2 at 16 ppm: protective P2, 16 ppm
[2] = system: Phakopsora pachyrhizi (F129L); assay: Protective control of soybean rust on soybeans (PHAKPA P6); format: in vivo; conditions: for PHAKPA (F129L) Disease level (%) P6 at 16 ppm / PHAKPA (F129L) Disease level (%) P6 at 4 ppm: P6 protective, % diseased leaf area; for % PHAKPA (F129L) Disease level P6 at 4 ppm: protective P6, 4 ppm; for % PHAKPA (F129L) Disease level P6 at 4 ppm / % PHAKPA (F129L) Disease level P6 at 16 ppm: soybean rust F129L; for % PHAKPA (F129L) Disease level P6 at 16 ppm: protective P6, 16 ppm

Row | Compound | PHAKPA (F129L) Disease level (%) P2 at 16 ppm [1] [%] | PHAKPA (F129L) Disease level (%) P6 at 16 ppm [2] [%] | PHAKPA (F129L) Disease level (%) P2 at 4 ppm [1] [%] | PHAKPA (F129L) Disease level (%) P6 at 4 ppm [2] [%] | % PHAKPA (F129L) Disease level P2 at 4 ppm [1] [%] | % PHAKPA (F129L) Disease level P2 at 16 ppm [1] [%] | % PHAKPA (F129L) Disease level P6 at 4 ppm [2] [%] | % PHAKPA (F129L) Disease level P6 at 16 ppm [2] [%]
1 | CO/N=C(/C(=O)OC)c1ccccc1CO/N=C(\C)c1ccc(C)cc1 [reference compound] | 25 | 10 | – | – | – | – | – | –
2 | CNC(=O)/C(=N/OC)c1ccccc1CO/N=C(\C)c1cccc(C(F)(F)F)c1 [reference compound] | – | – | 12 | 38 | – | – | – | –
3 | CNC(=O)/C(=N/OC)c1cccc(C)c1CO/N=C(/c1ccc(F)cc1)C(F)F [Ex. 27] | 0 | 0 | – | – | 5 | 0 | 32 | 0
4 | CO/N=C(/C(=O)OC)c1cccc(C)c1CO/N=C(\C)c1ccccc1OC(F)(F)F [compound 236] | – | – | – | – | 97 | 77 | 97 | 100
5 | CO/N=C(/C(=O)OC)c1cccc(C)c1CO/N=C(\C)c1cccc(C2CC2)c1 [compound 297] | – | – | – | – | 90 | 37 | 87 | 37
6 | CNC(=O)/C(=N/OC)c1cccc(C)c1CO/N=C(\C)c1cc(C(F)(F)F)ccc1F [compound 199] | – | – | – | – | 0 | 0 | 0 | 0
7 | CNC(=O)/C(=N/OC)c1cccc(C2CC2)c1CO/N=C(\C)c1cccc(C(F)(F)F)c1 [Ex. 11] | – | – | – | – | 23 | 1 | 20 | 0
8 | CO/N=C(/C(=O)OC)c1cccc(C)c1CO/N=C(\C)c1ccc(F)cc1F [compound 266] | – | – | – | – | 67 | 18 | 90 | 43
9 | CNC(=O)/C(=N/OC)c1cccc(C)c1CO/N=C(\C)c1c(F)cccc1OC(F)F [compound 202] | – | – | – | – | 90 | 22 | 100 | 47
10 | CNC(=O)/C(=N/OC)c1cccc(C)c1CO/N=C(\C)c1cc(Cl)cc(Cl)c1F [compound 167] | – | – | – | – | 2 | 0 | 9 | 0
11 | CO/N=C(/C(=O)OC)c1cccc(C)c1CO/N=C(\C)c1cc(C(F)(F)F)ccc1Cl [compound 200] | – | – | – | – | 93 | 73 | 100 | 77
12 | CO/N=C(/C(=O)OC)c1cccc(C)c1CO/N=C(\C)c1ccccc1CC(F)(F)F [compound 222] | – | – | – | – | 100 | 57 | 100 | 93
13 | CNC(=O)/C(=N/OC)c1cccc(C)c1CO/N=C(\C)c1ccc(-c2ccccc2)cc1 [Ex. 113] | 17 | 6 | – | – | 25 | 26 | 41 | 25
14 | CNC(=O)/C(=C/OC)c1cccc(C)c1CO/N=C(\C)c1cccc(C(F)(F)F)c1 [compound 232] | – | – | – | – | 100 | 73 | 100 | 83
15 | CCc1ccc(/C(C)=N/OCc2ccccc2/C(=N\OC)C(=O)NC)cc1 [reference compound] | – | – | 35 | 83 | – | – | – | –
16 | CO/N=C(/C(=O)OC)c1cccc(C)c1CO/N=C(\C)c1cc(Cl)ccc1C(F)(F)F [compound 251] | – | – | – | – | 80 | 80 | 80 | 80
17 | CNC(=O)/C(=N/OC)c1cccc(C)c1CO/N=C(\CC1CC1)c1cccc(C(F)(F)F)c1 [compound 234] | – | – | – | – | 53 | 18 | 53 | 15
18 | CO/N=C(/C(=O)OC)c1cccc(C)c1CO/N=C(\C)c1cccc(-c2noc(C(F)(F)F)n2)c1 [compound 66] | – | – | – | – | 100 | 70 | 93 | 87
19 | CNC(=O)/C(=N/OC)c1cccc(C)c1CO/N=C(\C)c1cc(C(F)(F)F)cc(F)c1NC [compound 238] | – | – | – | – | 100 | 53 | 100 | 77
20 | CNC(=O)/C(=N/OC)c1ccccc1CO/N=C(\C)c1cccc(Cl)c1 [reference compound] | – | – | 43 | 80 | – | – | – | –
21 | CNC(=O)/C(=N/OC)c1cccc(C)c1CO/N=C(\C)c1cccc(-c2ccccc2)c1 [compound 98] | – | – | – | – | 3 | 0 | 1 | 0
22 | CNC(=O)/C(=N/OC)c1cccc(C)c1CO/N=C(\C)c1ccc(OC(F)(F)F)cc1OC(F)(F)F [compound 349] | – | – | – | – | 97 | 50 | 97 | 35
23 | CO/N=C(/C(=O)OC)c1cccc(C)c1CO/N=C(\C)c1cc(C(F)(F)F)ccc1F [compound 198] | – | – | – | – | 4 | 1 | 0 | 0
24 | C#Cc1ccc(/C(C)=N/OCc2c(C)cccc2/C(=N\OC)C(=O)NC)cc1 [compound 196] | – | – | – | – | 1 | 0 | 11 | 5
25 | CNC(=O)/C(=N/OC)c1ccccc1CO/N=C(\C)c1ccccc1Br [reference compound] | 23 | 28 | – | – | – | – | – | –
26 | CNC(=O)/C(=N/OC)c1cccc(C)c1CO/N=C(\C)c1ccc(C(C)=O)cc1 [compound 179] | – | – | – | – | 100 | 47 | 90 | 28
27 | CO/N=C(/C(=O)OC)c1cccc(C)c1CO/N=C(\C)c1cc(C)cc(Cl)c1 [compound 101] | – | – | – | – | 70 | 37 | 60 | 17
28 | CO/N=C(/C(=O)OC)c1cccc(C)c1CO/N=C(\C)c1ccccc1F [Ex. 1, Methyl (2E)-2-[2-[[(E)-3-(2-fluorophenyl)ethylideneamino]oxymethyl]-3-methyl-phenyl]-2-methoxyimino-acetate] | 28 | 47 | – | – | 80 | 27 | 90 | 56
29 | CO/N=C(/C)c1ccc(/C(C)=N/OCc2c(C)cccc2/C(=N\OC)C(=O)OC)c(C(F)(F)F)c1 [compound 417] | – | – | – | – | 35 | 18 | 63 | 22
30 | CNC(=O)/C(=N/OC)c1cccc(C)c1CO/N=C(\C)c1c(F)cccc1Cl [compound 284] | – | – | – | – | 63 | 44 | 62 | 34
